From patent US20100260684A1, “USE OF 3-ALKANOYLOXYMETHOXYCARBONYL NITROXIDE ESTERS AS OXIMETRY PROBES FOR MEASUREMENT OF OXYGEN STATUS IN TISSUES” (priority 2007, published 2010)
Read-outs that look alike come from different tables or passages of the source.

What was measured:
Jurkat lymphocytes = assay type: cell-based
Protocol: Cellular Loading of Nitroxides. Jurkat lymphocytes were cultured and loaded with nitroxides as previously described (5,6). […] After incubation, cells were washed 3 times in Hanks' Balanced Salt Solution (HBSS), and resuspended in […] HBSS. To lyse cells, […] digitonin was added to each cell suspension, which was then sonicated for […] in a bath sonicator (model G1 12SPIG, Laboratory Supplies Company, Inc., Hicksville, N.Y.). The lysate was assayed for nitroxide content by EPR spectroscopy. […] EPR Spectroscopy. EPR spectra were recorded on an X-band spectrometer (model E-109, Varian Inc., Palo Alto, Calif.) at the following settings: microwave power, 20 mW; microwave frequency, 9.55 GHz; field set, 3335 G; modulation frequency, 1 kHz; modulation amplitude, 0.5 G; field sweep, 80 G at 26.7 G min^-1 Where the amplitude of only the center spectral line was required, the sweep width was 8 […] software (Scientific Software Solutions, Northville, Mich.) was used for spectrometer control and data acquisition. Nitroxide signal was measured as the peak-to-trough amplitude of the center line of the three-line spectrum.

[1] = In vivo EPR: nitroxide entrapped in brain after iv injection and saline wash of head vasculature; conditions: mice, vasculature washed with normal saline
[2] = Determination of logP of labile esters from HPLC capacity factors; conditions: pH 6
[3] = mouse, in vivo, iv
[4] = pH 6
[5] = literature values used for logP vs. logk' calibration line; cited from earlier work

3-heptanoylmethoxycarbonyl-2,2,5,5-tetramethyl-1-pyrrolidinyloxyl [Ester 7]
intracellular loading of nitroxide [1] (Jurkat lymphocytes): no additional improvement in loading

CC(=O)OCOC(=O)C1CC(C)(C)N([O])C1(C)C (centres unmarked) [Ester 2, 3-Acetoxymethoxycarbonyl-2,2,5,5-tetramethyl-1-pyrrolidinyloxyl]
percentage of original dose crossed the blood brain barrier and entrapped in the brain as nitroxide [1] ([1]; 10-min point): about 42%
percentage of original dose crossed the blood brain barrier and entrapped in the brain as nitroxide [1] ([1]; 20-min point): about 42%

CCC(=O)OCOC(=O)C1CC(C)(C)N([O])C1(C)C (centres unmarked) [Ester 3, 3-propanoylmethyloxycarbonyl-2,2,5,5-tetramethyl-1-pyrrolidinyloxyl]
intracellular loading of nitroxide [1] (Jurkat lymphocytes): negligible effect on intracellular loading

CCC(=O)OCOC(=O)C1CC(C)(C)N(O)C1(C)C (centres unmarked) [Ester 3]
chromatographic logP [2]: 1.33

CCCCC(=O)OCOC(=O)C1CC(C)(C)N([O])C1(C)C (centres unmarked) [Ester 4, 3-pentanoylmethoxycarbonyl-2,2,5,5-tetramethyl-1-pyrrolidinyloxyl]
percentage of original dose crossed the blood brain barrier and entrapped in the brain as nitroxide [1] [3]: about 65%
logP [4]: 2.67

CCCCC(=O)OCOC(=O)C1CC(C)(C)N(O)C1(C)C (centres unmarked) [Ester 4]
chromatographic logP [2]: 2.67

CC(C)(C)C(=O)OCOC(=O)C1CC(C)(C)N([O])C1(C)C (centres unmarked) [Ester 6]
logP [4]: 2.60

CCCCCCC(=O)OCOC(=O)C1CC(C)(C)N(O)C1(C)C (centres unmarked) [Ester 7]
chromatographic logP [2]: 3.54

C[C@]12CCC(=O)C=C1CC[C@@H]1[C@@H]2[C@@H](O)C[C@@]2(C)[C@H]1CC[C@]2(O)C(=O)CO [hydrocortisone]
known logP [5]: 1.53
